The source of these data is EP1345943B1, “INHIBITORS OF PAPILLOMA VIRUS” (BOEHRINGER INGELHEIM (CANADA) LTD., priority 2000, dated 2002).

For the assay, the target named is E1-E2-DNA complex (Human papillomavirus 11, UniProt P04015). As to the kind of experiment: E2-dependent E1 DNA binding assay (E1-E2 DNA assay). Particulars: E1-E2 DNA assay of Example 11, HPV-11. On the procedure: This particular assay determines the ability of a test compound to inhibit the activity (IC50) of HPV-11 DNA replication. More specifically, in the assay described herein, the inhibitory activity of the test compound is evaluated based on its ability to interfere with the E1-E2-DNA origin of replication interaction, thereby inhibiting initiation of viral DNA replication.
This assay was modeled on a similar assay for SV40 T Antigen described by McKay (J. Mol. Biol., 1981,145:471). A 400bp radiolabeled DNA probe, containing the -HPV-11 origin of replication (Chiang et al.., 1992, Proc. Natl.-Acad. Sci. USA 89:5799) was produced by pcr, using plasmid pBluescript™ SK encoding the origin (nucleotides 7886-61 of the HPV-11 genome in unique BAMH1 site) as template and primers flanking the origin. Radiolabel was incorporated as [33p]dCTP. Binding assay buffer consisted of: 20 mM Tris pH 7.6, 100 mM NaCI, 1 mM DTT, 1 mM EDTA.
Other reagents used were protein A-SPA beads (type II, Amersham) and K72 rabbit polyclonal antiserum, raised against a peptide corresponding to the C-terminal 14 amino acids of HPV-11 E1. Following the protocol from Amersham, one bottle of beads was mixed with 25 mL of binding assay buffer. For the assay, a saturating amount of K72 antiserum was added to the beads and the mixture was incubated for 1 h, washed with one volume of binding assay buffer, and then resuspended in the same volume of fresh binding assay buffer. Binding reactions contained 8 ng of E2, approximately 100-200 ng of purified E1, and 0.4 ng of radiolabeled probe in a total of 80 µL of binding assay buffer. After 1 h at room temperature, 25 µL of K72 antibody-SPA bead suspension was added to with the binding reaction and mixed. After an additional hour of incubation at room temperature, the reactions were centrifuged briefly to pellet the beads and the extent of complex formation was determined by scintillation counting on a Packard TopCount™. Typically, the signal for reactions containing E1 and E2 was 20-30 fold higher than the background observed when either E1, E2, or both was omitted.

Sequence of E1-E2-DNA complex (P04015 whole entry, one chain of several): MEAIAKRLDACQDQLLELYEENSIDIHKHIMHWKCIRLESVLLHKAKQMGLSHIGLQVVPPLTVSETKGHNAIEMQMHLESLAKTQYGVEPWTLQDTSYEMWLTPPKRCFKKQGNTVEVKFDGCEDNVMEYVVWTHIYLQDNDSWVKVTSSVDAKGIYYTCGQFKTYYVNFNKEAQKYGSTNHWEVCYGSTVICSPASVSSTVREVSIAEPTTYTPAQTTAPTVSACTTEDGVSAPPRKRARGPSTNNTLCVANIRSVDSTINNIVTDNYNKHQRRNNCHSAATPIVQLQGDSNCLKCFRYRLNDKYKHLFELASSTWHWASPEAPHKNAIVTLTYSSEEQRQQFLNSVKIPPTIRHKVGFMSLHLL

The term IC50 denotes the midpoint of a concentration-inhibition curve. Read a high IC50 as a need for much substance. `O=C1C2C(c3ccc(Cl)cc3)OC3(C(=O)c4ccccc4C3=O)C2C(=O)N1c1cccc(Cl)c1` (stereo not shown) [Compound 2009]: the half-maximal inhibitory concentration (IC50) was 5 to 50 µM.

`Cc1ccc(C2OC3(C(=O)c4ccccc4C3=O)C(C(=O)O)C2C(=O)Nc2ccc3c(c2)OCO3)cc1C` (stereo not shown) [Compound 1024]: the IC50 was 0.5 to 5 µM.

Molecule `Cc1cc2c(s1)C1(O)OC(=O)C3C(C(=O)Nc4ccc(CNC(=O)OC(C)(C)C)cc4)C(c4ccc(Br)c(Br)c4)OC31C2=O` (single isomer, unassigned) [Compound D1003] registered an IC50 below 0.5 µM.

As for `CC(=O)c1ccc(NC(=O)C2C(c3ccc(Cl)c(Cl)c3)OC3(C(=O)c4ccc(Cl)cc4C3=O)C2C(=O)O)cc1` (stereo not shown) [Compound 1114], the IC50 is 0.5 to 5 µM.

In the case of `O=C(NCCc1cccs1)C1C(c2ccc(Cl)c(Cl)c2)OC2(C(=O)c3ccccc3C2=O)C1C(=O)O` (stereo not shown) [Compound 1138], the concentration for half-maximal inhibition (IC50) is below 0.5 µM.

In turn, `CS(=O)(=O)c1ccc(NC(=O)C2C(c3ccc(Br)c(Br)c3)OC3(C(=O)c4ccccc4C3=O)C2C(=O)O)cc1` (stereo not shown) [Compound 1086] returned a 50% inhibitory concentration (IC50) below 0.5 µM.

In the case of `O=C(Nc1ccc2c(c1)OCO2)C1C(c2ccc(Cl)cc2)OC23C(=O)c4ccccc4C2(O)OC(=O)C13` (racemic) [Compound 3005], the IC50 was 5 to 50 µM.

Turning to `O=C(Nc1ccc2c(c1)OCO2)C1C(c2ccc(Cl)c(F)c2)OC2(C(=O)c3ccccc3C2=O)C1C(=O)O` (stereo not shown) [Compound 1029], the IC50 was 0.5 to 5 µM.

Take `O=C(Nc1ccc(-c2csnn2)cc1)C1C(c2ccc(Br)c(Br)c2)OC2(C(=O)c3ccccc3C2=O)C1C(=O)O` (racemic) [Compound 1076]: the half-maximal inhibitory concentration (IC50) is below 0.5 µM.

`Cc1ccc(NC(=O)C2C(c3ccc(Br)c(Br)c3)OC3(C(=O)c4ccccc4C3=O)C2C(=O)O)cc1` (racemic) [Compound 1072] registered an IC50 below 0.5 µM.

The molecule `Cc1ccc2c(c1)C(=O)C1(OC(c3ccc(Br)c(Br)c3)C(C(=O)Nc3ccc(-c4csnn4)cc3)C1C(=O)O)C2=O` (stereo not shown) [Compound A1009] had an IC50 of 5 to 50 µM.

For the molecule `CC(=O)c1ccc(NC(=O)C2C(C=Cc3cccc(Br)c3)OC3(C(=O)c4ccccc4C3=O)C2C(=O)O)cc1` (stereo not shown) [Compound 4006], the IC50 was 5 to 50 µM.

For the molecule `[N-]=[N+]=Nc1c(F)c(F)c(CNC(=O)C2C(c3ccc(Cl)c(Cl)c3)OC34C(=O)c5ccccc5C3(O)OC(=O)C24)c(F)c1F` (racemic) [Compound 3008], the concentration for half-maximal inhibition (IC50) was 5 to 50 µM.

`Cc1cc2c(cc1F)C(=O)C1(OC(c3ccc(Br)c(Br)c3)C(C(=O)Nc3ccc(N4CCOCC4)cc3)C1C(=O)O)C2=O` (single isomer, unassigned) [Compound A1016] displayed an IC50 of 0.5 to 5 µM.

For the molecule `O=C(NC1CCCCC1)C1C(c2ccc(Br)c(Br)c2)OC2(C(=O)c3ccccc3C2=O)C1C(=O)O` (stereo not shown) [Compound 1099], the IC50 was below 0.5 µM.

`O=C1C2C(c3ccc(Cl)cc3)OC3(C(=O)c4ccccc4C3=O)C2C(=O)N1c1cccc(C(F)(F)F)c1` (stereo not shown) [Compound 2011] displayed a half-maximal inhibitory concentration (IC50) of 5 to 50 µM.

`O=C(Nc1ccc(N2CCOCC2)cc1)C1C(c2ccc(Br)c(Br)c2)OC2(C(=O)c3ccccc3C2=O)C1C(=O)O` (single isomer, unassigned) [Compound A1013] registered an IC50 below 0.5 µM.

Molecule `O=C(Nc1cnc2ccccc2c1)C1C(c2ccc(F)c(F)c2)OC2(C(=O)c3ccccc3C2=O)C1C(=O)O` (stereo not shown) [Compound 1061] registered a half-inhibitory concentration (IC50) of 5 to 50 µM.

For the molecule `O=C(Nc1ccc(N2CCOCC2)cc1)C1C(c2ccc(Br)c(Br)c2)OC2(C(=O)c3ccc(F)cc3C2=O)C1C(=O)O` (stereo not shown) [Compound 1143], the concentration for half-maximal inhibition (IC50) is below 0.5 µM.

Molecule `Cc1ccc(N2C(=O)C3C(c4ccc(Cl)cc4)OC4(C(=O)c5ccccc5C4=O)C3C2=O)cc1` (stereo not shown) [Compound 2006] showed an IC50 of 5 to 50 µM.

`O=C(NC1CC1c1ccccc1)C1C(c2ccc(Cl)c(Cl)c2)OC2(C(=O)c3ccccc3C2=O)C1C(=O)O` (stereo not shown) [Compound 1058] registered an IC50 of 0.5 to 5 µM.

`CC(=O)c1ccc(NC(=O)C2C(C(Br)=Cc3ccccc3)OC3(C(=O)c4ccccc4C3=O)C2C(=O)O)cc1` (racemic) [Compound 4012] registered a half-maximal inhibitory concentration (IC50) of 5 to 50 µM.

Regarding `Cc1cccc(C2OC3(C(=O)c4ccccc4C3=O)C(C(=O)O)C2C(=O)Nc2ccc3c(c2)OCO3)c1` (stereo not shown) [Compound 1018], the concentration for half-maximal inhibition (IC50) lay within 5 to 50 µM.

Molecule `O=C(Nc1ccc(Cl)cc1)C1C(c2ccc(Cl)c(Cl)c2)OC2(C(=O)c3ccccc3C2=O)C1C(=O)O` (stereo not shown) [Compound 1063] registered an IC50 of 0.5 to 5 µM.

`O=C(Nc1ccc(F)cc1)C1C(c2ccc(Cl)cc2)OC2(C(=O)c3ccccc3C2=O)C1C(=O)O` (stereo not shown) [Compound 1003]: the concentration for half-maximal inhibition (IC50) lay within 5 to 50 µM.

On to `Cc1ccc(NC(=O)C2C(c3ccc(Cl)c(Cl)c3)OC3(C(=O)c4ccccc4C3=O)C2C(=O)O)cc1` (stereo not shown) [Compound 1065], for which the IC50 is 0.5 to 5 µM.

`N#Cc1cccc(NC(=O)C2C(c3ccc(Cl)c(Cl)c3)OC3(C(=O)c4ccccc4C3=O)C2C(=O)O)c1` (stereo not shown) [Compound 1127] registered an IC50 of 0.5 to 5 µM.

Consider `O=C(Nc1ccc(Cl)cc1)C1C(c2ccc(F)c(F)c2)OC2(C(=O)c3ccccc3C2=O)C1C(=O)O` (stereo not shown) [Compound 1062], for which the half-inhibitory concentration (IC50) is 5 to 50 µM.

Consider `O=C(NN1CCOCC1)C1C(c2ccc(Br)c(Br)c2)OC2(C(=O)c3ccccc3C2=O)C1C(=O)O` (racemic) [Compound 1075], for which the IC50 is 0.5 to 5 µM.

With `O=C1C2C(c3ccc(Cl)c(Cl)c3)OC3(C(=O)c4ccccc4C3O)C2C(=O)N1c1ccc2c(c1)OCO2` (racemic) [Compound 9001], the IC50 lay within 5 to 50 µM.

The molecule `CC(=O)NCc1ccc(NC(=O)C2C(c3ccc(Br)c(Br)c3)OC34C(=O)c5cc(C)sc5C3(O)OC(=O)C24)cc1` (single isomer, unassigned) [Compound D1004] displayed an IC50 below 0.5 µM.

With `N#Cc1ccc(NC(=O)C2C(c3ccc(Cl)c(Cl)c3)OC3(C(=O)c4ccccc4C3=O)C2C(=O)O)cc1` (stereo not shown) [Compound 1070], the IC50 fell in the range of 0.5 to 5 µM.

In turn, `Cc1ccc2c(c1)C(=O)C1(OC(c3ccc(Cl)c(Cl)c3)C(C(=O)Nc3ccc4c(c3)OCO4)C1C(=O)O)C2=O` (single isomer, unassigned) [Compound A1003] came in with a half-inhibitory concentration (IC50) of 5 to 50 µM.

`O=C(Nc1cccc(Cl)c1)C1C(c2ccc(Cl)cc2)OC2(C(=O)c3ccccc3C2=O)C1C(=O)O` (stereo not shown) [Compound 1006] showed an IC50 of 5 to 50 µM.

Turning to `O=C(NCCc1ccccc1)C1C(c2ccc(Br)c(Br)c2)OC2(C(=O)c3ccccc3C2=O)C1C(=O)O` (stereo not shown) [Compound 1097], the 50% inhibitory concentration (IC50) was below 0.5 µM.

Molecule `CC(=O)c1ccc(NC(=O)C2C(C=Cc3cccc(Cl)c3Cl)OC3(C(=O)c4ccccc4C3=O)C2C(=O)O)cc1` (stereo not shown) [Compound 4010] gave a concentration for half-maximal inhibition (IC50) of 0.5 to 5 µM.

Molecule `CC(=O)c1ccc(NC(=O)C2C(c3ccc(F)c(Cl)c3)OC3(C(=O)c4ccccc4C3=O)C2C(=O)O)cc1` (stereo not shown) [Compound 1094] returned a concentration for half-maximal inhibition (IC50) of 0.5 to 5 µM.

In the case of `O=C(NCCc1ccccc1)C1C(c2ccc(F)c(Cl)c2)OC2(C(=O)c3ccccc3C2=O)C1C(=O)O` (stereo not shown) [Compound 1115], the IC50 was in the range of 0.5 to 5 µM.

Consider `CC(=O)c1ccc(NC(=O)C2C(c3ccc(Br)c(Br)c3)OC3(C(=O)c4ccccc4C3=O)C2C(=O)O)cc1` (racemic) [Compound 1027], for which the IC50 was below 0.5 µM.

`O=C1C2C(c3cccc(Cl)c3)OC3(C(=O)c4ccccc4C3=O)C2C(=O)N1c1ccc2c(c1)OCO2` (stereo not shown) [Compound 2005] had an IC50 of 0.5 to 5 µM.

On to `O=C1C2C(c3ccc(C(F)(F)F)cc3)OC3(C(=O)c4ccccc4C3=O)C2C(=O)N1c1ccc2c(c1)OCO2` (stereo not shown) [Compound 2008], for which the half-maximal inhibitory concentration (IC50) was in the range of 5 to 50 µM.

`O=C(Nc1ccc2c(c1)OCO2)C1C(c2ccc(Br)c(Br)c2)OC2(C(=O)c3ccccc3C2=O)C1C(=O)O` (stereo not shown) [Compound 1084]: the half-maximal inhibitory concentration (IC50) is below 0.5 µM.

`Cc1ccc2c(c1)C(=O)C13OC(c4ccc(Br)c(Br)c4)C(C(=O)NCCc4ccccc4Cl)C1C(=O)OC23O` (single isomer, unassigned) [Compound B1004]: the half-maximal inhibitory concentration (IC50) lay within 5 to 50 µM.

As for `O=C1C2C(c3ccc(Cl)c(Cl)c3)OC3(C(=O)c4ccccc4C3=O)C2C(=O)N1c1ccc(O)cc1` (stereo not shown) [Compound 2021], the IC50 was below 0.5 µM.

`Cc1ccc2c(c1)C(=O)C1(OC(c3ccc(Cl)c(Cl)c3)C(C(=O)Nc3ccc4c(c3)OCO4)C1C(=O)O)C2=O` (stereo not shown) [Compound 1037] came in with an IC50 of 0.5 to 5 µM.

For the molecule `O=C(NC1Cc2ccccc2C1)C1C(c2ccc(Br)c(Br)c2)OC2(C(=O)c3ccccc3C2=O)C1C(=O)O` (stereo not shown) [Compound 1113], the IC50 was below 0.5 µM.

Turning to `O=C(Nc1ccc(-c2csnn2)cc1)C1C(c2ccc(Cl)c(Cl)c2)OC2(C(=O)c3ccccc3C2=O)C1C(=O)O` (stereo not shown) [Compound 1052], the IC50 was below 0.5 µM.

For the molecule `Nc1ccc(N2C(=O)C3C(c4ccc(Cl)c(Cl)c4)OC4(C(=O)c5ccccc5C4=O)C3C2=O)cc1` (stereo not shown) [Compound 2019], the 50% inhibitory concentration (IC50) fell in the range of 0.5 to 5 µM.

Regarding `CC(=O)c1ccc(NC(=O)C2C(c3ccc(Cl)c(Cl)c3)OC34C(=O)c5ccccc5C3(O)OC(=O)C24)cc1` (racemic) [Compound 3009], the IC50 is below 0.5 µM.
